We go through 7 molecules from article PMC4415987 (Biomarkers : biochemical indicators of exposure, response, …, 2009).

The term IC50 denotes the point on the concentration scale where inhibition reaches its midpoint.

In one data set the test system is lymphocyte mAChRs. In kind it is binding, human. The settings on record: for LOAEL toward mAChRs: human lymphocytes in vitro, PCB values regardless of the presence of MeHg.
In the next data set the target is T1, MAO-B (Homo sapiens, UniProt P27338).
T1 sequence (P27338 1-520): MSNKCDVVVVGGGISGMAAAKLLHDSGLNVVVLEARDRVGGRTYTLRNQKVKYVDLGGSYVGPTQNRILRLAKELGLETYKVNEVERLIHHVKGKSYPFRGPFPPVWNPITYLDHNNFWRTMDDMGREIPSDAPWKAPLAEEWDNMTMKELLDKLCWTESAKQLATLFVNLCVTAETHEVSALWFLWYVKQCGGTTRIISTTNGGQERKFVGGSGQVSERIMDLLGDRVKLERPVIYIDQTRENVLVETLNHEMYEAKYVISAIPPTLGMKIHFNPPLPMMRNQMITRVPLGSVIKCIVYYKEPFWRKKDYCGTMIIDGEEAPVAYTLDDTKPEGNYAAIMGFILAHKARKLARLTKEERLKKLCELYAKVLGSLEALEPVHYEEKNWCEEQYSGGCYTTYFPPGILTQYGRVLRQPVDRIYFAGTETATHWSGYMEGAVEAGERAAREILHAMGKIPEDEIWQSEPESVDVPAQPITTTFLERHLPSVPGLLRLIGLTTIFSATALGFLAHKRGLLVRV
The experiment in a line: Platelet MAO-B activity. The data set is classed as biochemical. The settings on record: human platelets in vitro; for LOAEL toward MAO-B: not modified by MeHg addition.

The conditions of data set [1]: weaning rats given 1 mg MeHg kg−1 daily perinatally, cited from earlier work.

As for `Oc1c(Cl)cc(-c2ccc(Cl)c(Cl)c2)c(Cl)c1Cl` [4-OH-PCB-107], in the data set with lymphocyte mAChRs, the “LOAEL toward mAChRs” value amounted to 1 µM. For the same molecule, the “LOAEL toward MAO-B” value at MAO-B worked out at 10 µM.

`Clc1ccc(-c2cc(Cl)c(Cl)cc2Cl)cc1Cl` [PCB-118]: in the data set with lymphocyte mAChRs, the “LOAEL toward mAChRs” value came out at 1 µM. Further, the “LOAEL toward MAO-B” value on MAO-B was 10 µM.

For the molecule `Clc1ccc(-c2ccc(Cl)c(Cl)c2Cl)cc1Cl` [PCB-105], the “LOAEL toward mAChRs” value with lymphocyte mAChRs was found to be 1 µM. At MAO-B, the “LOAEL toward MAO-B” value was determined as 1 µM.

Turning to `Clc1cc(Cl)c(-c2cc(Cl)c(Cl)cc2Cl)cc1Cl` [PCB-153, 2,2′,4,4′,5,5′-hexachlorobiphenyl], the “LOAEL toward mAChRs” value in the data set with lymphocyte mAChRs is 1 µM. On MAO-B (in the presence or absence of 1 mM MeHg), the “IC50, MAO-B activity” value is “No effect”.

On to `Clc1ccc(-c2ccc(Cl)c(Cl)c2)cc1Cl` [PCB-77], for which, in the data set with lymphocyte mAChRs, the “LOAEL toward mAChRs” value was 0.1 µM. Besides, the “LOAEL toward MAO-B” value at MAO-B came to 10 µM.

For `[CH3][Hg][Cl]` [MeHg, methylmercury], in the data set on lymphocyte mAChRs, the “LOAEL toward mAChRs” value came out at 1 µM. Moreover, the IC50 in the data set on lymphocyte mAChRs (read-out: IC50, inhibition of [3H]QNB binding to lymphocyte mAChRs) came out at 5 ± 0.9 µM. Further, the “inhibitory effect on MAO-B activity” value at MAO-B (MeHg up to 1 mM) is recorded as “negligible”. Moreover, the “Hg concentration in the blood” value in data set [1] (ref Coccini et al. 2007a) is 1.3 ± 0.4 µg/mL. For the same molecule, the “Hg concentration in the brain” value in data set [1] (ref Coccini et al. 2007b) was 1.5–2.8 ppm.

Turning to `Clc1ccc(-c2ccc(Cl)cc2Cl)cc1` [PCB-28], the “LOAEL toward mAChRs” value with lymphocyte mAChRs stood at 1 µM. The “LOAEL toward MAO-B” value on MAO-B amounted to 10 µM.
